Data reported in ChEMBL document CHEMBL1201862, “PubChem BioAssay data set” (2004).
Active and inactive are the calls of the source. No stated cut-off is given here; in the data, actives have a measured IC50 and inactives only a lower limit.

Target: Envelope glycoprotein gp160 (Human immunodeficiency virus 1, UniProt Q6QLK5)
Assay: cell-free HIV fusion peptide-binding blockers – biochemical, uHTS, fluorescence dequenching, […] (AID 1986)

Sequence of Envelope glycoprotein gp160 (Q6QLK5 whole entry, the tested form may be a part): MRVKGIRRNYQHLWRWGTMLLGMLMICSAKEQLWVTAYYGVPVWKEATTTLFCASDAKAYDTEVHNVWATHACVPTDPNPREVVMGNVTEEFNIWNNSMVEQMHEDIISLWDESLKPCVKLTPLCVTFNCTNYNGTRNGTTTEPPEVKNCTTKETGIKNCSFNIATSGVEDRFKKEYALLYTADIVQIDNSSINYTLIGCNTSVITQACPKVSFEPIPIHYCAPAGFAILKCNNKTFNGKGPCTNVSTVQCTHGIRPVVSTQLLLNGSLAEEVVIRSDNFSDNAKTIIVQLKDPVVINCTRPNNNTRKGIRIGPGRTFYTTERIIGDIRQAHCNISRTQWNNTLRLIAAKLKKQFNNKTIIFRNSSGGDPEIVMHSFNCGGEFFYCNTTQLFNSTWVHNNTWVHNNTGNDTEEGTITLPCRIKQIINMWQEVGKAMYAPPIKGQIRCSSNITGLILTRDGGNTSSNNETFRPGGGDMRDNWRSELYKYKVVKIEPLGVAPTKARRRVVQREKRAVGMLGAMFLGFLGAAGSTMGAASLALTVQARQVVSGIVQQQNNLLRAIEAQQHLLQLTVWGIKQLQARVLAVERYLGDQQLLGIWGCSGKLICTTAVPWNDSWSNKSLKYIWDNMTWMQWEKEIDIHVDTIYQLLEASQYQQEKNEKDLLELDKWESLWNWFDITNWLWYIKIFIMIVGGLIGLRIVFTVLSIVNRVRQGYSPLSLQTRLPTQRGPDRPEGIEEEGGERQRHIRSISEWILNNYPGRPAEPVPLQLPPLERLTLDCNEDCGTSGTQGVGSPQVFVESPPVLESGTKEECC

**Q.** O=C(O)c1cccc(-n2cccc2/C=C2/NC(=O)N(c3ccc(Cl)cc3)C2=O)c1 was tested. Which IC50 did it give?
**A.** 16.9 µM (active)

**Q.** For COc1cc(/C=C2\C(=N)N3N=C(S(C)(=O)=O)SC3=NC2=O)cc(OC)c1OCCOc1cccc(C)c1, which IC50 is on record?
**A.** 13.8 µM (active)

**Q.** For N#Cc1c(O)nc(SCC(=O)Nc2ccc(OC(F)(F)Cl)cc2)nc1-c1ccccc1, which IC50 is on record?
**A.** 15.6 µM (active)
